Entries after “also recorded” stand apart in the source; their conditions may differ.
Legend:
[1] = tested on: preterm lamb model of BPD; experiment: Respiratory system mechanics (ventilator, forced oscillation technique, methacholine challenge); type: in vivo
Protocol: Respiratory system mechanics assessments with methacholine challenge. The respiratory system mechanics were assessed for the early-stage study (DOL1-10) and late-stage study (DOL10-90). For the early-stage research, the Drager ventilator recorded respiratory system mechanics every 5 min while the PT lambs were intubated and mechanically ventilated. The parameters were dynamic lung compliance and resistance. The inventors averaged the parameters every 12 h.
For the early and late-stage studies, after the lambs were extubated and transitioned to noninvasive respiratory support and spontaneously breathing (DOL7-10) and thereafter to DOL90, the inventors used forced oscillometry (FOT; model Tremoflo N-100; Thorasys, Thoracic Medical Systems Inc., Montreal, QC, Canada), with a filter (Humid-Vent Filter Small A, Teleflex Medical, Ireland). This instrument, validated in term and PT human infants,^18 allows the measurement of respiratory system mechanics in uncooperative subjects (not intubated and breathing spontaneously) by applying a pressure stimulus at the airway opening and measuring the resulting flow. The inventors used a small canine mask (product number 93815026; Midmark Corp., Versailles, OH). The FOT device was calibrated daily, and the use followed the manufacturer's instructions. The inventors used the standard TremoFlo-supplied software without modifications. The software enables post hoc inspection of the measurement time course. As recommended by the manufacturer, any measurement with a leak was discarded. FOT measurements were made for the FPT lambs at 1 month corrected postnatal age (1 moC; DOL60) and 2 moC (DOL90). The comparison time points for term reference lambs were matched for corrected postnatal age.
FOT analysis was done on lambs that stood prone, supported by a veterinary sling. The lambs were given Lorazepam (0.1 mg/Kg, intramuscularly) to keep them calm. The mask was placed over their muzzle and held in place by a tender. The lambs were habituated to the sling and mask before testing was done. FOT was used to measure respiratory system resistance and reactance in four steps: (1) baseline, (2) bronchodilator (albuterol), (3) bronchoconstrictor (methacholine challenge), and (4) bronchodilator (albuterol). The inventors used an Aeroneb Pro nebulizer (Aerogen Ltd, Galway, Ireland) connected to the mask. The inventors repeatedly measured tissue O2 saturation by pulse oximetry, heart rate, and blood pressure. After the baseline measurement, the inventors nebulized albuterol (1.5 mL; Hi-Tech Pharmacal Co., Amityville, NY) to dilate the airways in each lamb before methacholine challenge. Airway responsiveness was assessed during stepwise increases in nebulized methacholine (Provocholine; Pancap, Inc., Markham, Ontario, Canada), according to the ATS 1999 guideline^19 and reported by the inventors for FPT and term reference lambs.^14 Methacholine concentration was doubled for each step, starting from 0.06 mg/mL up to a maximum concentration of 4.00 mg/mL. At the end of the methacholine challenge steps, 1.5 mL of albuterol was nebulized to dilate the airways. All lambs tolerated the procedure, which took 45-60 min.

[2] = tested on: cord blood mononuclear cells (CBMCs); experiment: Cytokine profile in LPS-challenged CBMCs; type: cell-based, human; conditions: compound 100 μM + LPS 50 ng/mL vs LPS treated cells
Protocol: FIGS. 15A TO 15F show the AVR-48 cytokine profile in CBMCs. Cells treated with AVR-48 [100 μM], LPS [50 ng/mL] and AVR-48+LPS show a decrease (˜2-4-fold) in cytokine signal in (FIG. 15A) TNF-α, (FIG. 15B) IL-1β, (FIG. 15C) IL-10, (FIG. 15D) IL-12, (FIG. 15E) IL-6, and (FIG. 15F) IL-8, and indicates a reduced […] response as compared to LPS treated cells solo. N=3, One-way ANOVA was used for analysis.
CBMCs were treated with either AVR-123 [100 μM], LPS [50 ng/mL] or AVR-123+LPS for 24 h. […] (FIG. 23G) AVR-123 decreases phosphorylated NFkB alone and when combined with LPS in CBMCs via western blot analysis. N=3, One-way ANOVA.

[3] = tested on: cord blood mononuclear cells (CBMCs); experiment: LPS tolerance / pretreatment in CBMCs; type: cell-based, human
Protocol: Cells were dosed with AVR-48 [100 μM], LPS [50 ng/mL], and in combination show (FIG. 16A). […] N=3, One-way ANOVA was used for analysis. […] N=3, Two-way ANOVA.
N=3 *p<0.05, **p<0.01, ***p<0.001. One-way ANOVA and t tests.

[4] = tested on: IL-1β, IL-6, IL-10 and soluble CD163 in lamb plasma; experiment: Plasma cytokine and soluble CD163 ELISA in lambs; type: in vivo; conditions: early-stage study, PT lambs vs vehicle
Text: ELISA: The serum and bronchoalveolar lavage (BAL) fluid samples were used to quantify cytokine and soluble CD163 (sCD163) concentrations. The ELISA experiment analysis used commercially available ELISA kits, which were quantified using a plate reader. The inventors used GraphPad Prism V. 10.4. All sheep (ovine) ELISA kits were used within the expiry dates. Ovine IL-1β(Cat #ELO-IL1β), and ovine IL-6 (Cat #ELO-IL6) ELISA kits were purchased from RayBiotech, Peachtree Corners, GA, USA, sheep IL-10 (Cat #E12817Sh-96) was purchased from Lifeome Biolabs, Oceanside, CA, sheep CD163 (cat #MBS9364870) was purchased from MyBioSource, Inc. San Diego, CA, and Pierce™ BCA Protein Assay Kit (Cat #23227) from Thermo Fischer Scientific, Rockford, IL.

[5] = FOT, d90, FPT lambs vs FPT vehicle
[6] = ventilator-measured, invasive mechanical ventilation DOL1-7, PT lambs vs vehicle

CC(=O)NC1C(Oc2ccc([N+](=O)[O-])cc2)OC(CO)C(O)C1O (centres unmarked) [AVR-48]
resistance and reactance of the respiratory system ([1]; FOT, DOL 60, late-stage study): No significant difference
baseline reactance at 5 and 10 Hz (upper and large airways) [1, 5]: significantly less negative
baseline resistance at 5 Hz (upper and large airways) [1, 5]: significantly lower
reactance at 5 and 10 Hz after methacholine challenge [1, 5]: significantly less negative
reactance at 7-20 Hz after albuterol nebulization [1, 5]: less negative reactance
resistance at 5 Hz after methacholine challenge [1, 5]: significantly lower resistance
resistance at 7-20 Hz after albuterol nebulization [1, 5]: significantly lower resistance
respiratory system resistance in large (5 Hz), middle (7-20 Hz), and small (41 Hz) airways ([1]; FOT, end of early-stage study (DOL10), PT lambs 3.0 mg/kg vs vehicle): significantly lower resistance
airway reactance AX (area under the curve below zero) ([1]; FOT, end of early-stage study (DOL10), PT lambs vs vehicle): significantly lower
dynamic lung compliance [1, 6]: No statistically significant differences; also recorded: consistently lower
lung resistance [1, 6]: No statistically significant differences
decrease in IL-1β [2]: 2-4 fold
decrease in IL-6 [2]: 2-4 fold
decrease in IL-8 [2]: 2-4 fold
decrease in IL-10 [2]: 2-4 fold
decrease in IL-12 [2]: 2-4 fold
decrease in TNF-α [2]: 2-4 fold
IL-1β profile ([3]; CBMC pre-treated with compound 100 μM for 48 h followed by LPS 50 ng/mL): inhibited IL-1β profile
TNF-α in LPS-tolerant CBMCs ([3]; low dose LPS 48 h then second (high dose) LPS, with addition of compound): increased production of TNF-α
TNF-α level ([3]; pretreatment 48 h followed by LPS 24 h, vs control): significant higher level
plasma concentration of IL-1β ([4]; 6-10 h): significantly lower
plasma concentration of IL-6 ([4]; 72-75 h): significantly lower
plasma concentration of IL-10 ([4]; 138-150 h): significantly higher
